According to US20050079566A1, “Analytical methods for determination of proteolytic cleavage at specific sites” (priority 2003, published 2005):
No end group written: not given here. *: point of attachment. Biotin = O=C1N[C@H]2[C@H](CS[C@H]2CCCCC(=O)*)N1

What was measured:
[1] = tested on: HYB 100-01-POD; assay: ELISA: effect of peptide length and N-terminus on the signal with TAL reagent and HYB 100-01-POD; type: binding; settings: Example 6, FIG. 6, activated TAL, HYB 100-01-POD 0.5 μg/ml; for signal: peptide coupled to Immobilizer plate
Experimental: PBS (100 μl) was added to all wells of an Immobilizer 96-well microtiter plate (Nunc). The relevant peptides (SEQ ID NO:11, 13, 14, 15 and 16) were all diluted to 50 μg/ml in PBS and 100 μl of individual solutions added to the first well of the respective row. […] The peptides were allowed to couple to the plate for two hours at 20-25° C. Residual coupling activity was reduced by the addition of 50 μl of 50 mM Tris Buffer, pH 8.0, for 30 minutes. Each well was then washed with 100 μl of PBS. To 0.5 ml of TAL reagent (Zhanjiang A&C Biologicals Ltd) was added 15 EU of Control Standard Endotoxin (CSE) followed by 12 ml of endotoxin-free PBS, and 100 μl of this solution was then added to each well. The plate was then incubated at 37° C. for 45 minutes.

[2] = tested on: antisera; assay: Inhibition ELISA: cross-reactivity of antisera with peptides of different length; type: binding, mice; settings: antisera against octapeptide QESGVSGR
Experimental: Immunization of mice: Separate groups of BCG-vaccinated mice were immunized with six doses (10 μg carrier) of each of these conjugates at 14-day intervals and their sera tested by ELISA in wells coated with the corresponding peptide coupled at molar ratios of 5:1 or 2.5:1 to the opposite carrier at a coating concentration of 10 μg/ml (with respect to carrier) in 0.05 M sodium carbonate buffer, pH 9.6.

[3] = tested on: TAL reagent; settings: Example 4, FIG. 4; peptide at 40 ng/ml, detection with HYB 100-01-POD
Experimental: Under precautions to keep endotoxin contamination to a minimum, a solution of peptide (SEQ ID NO:12) at a concentration of 40 ng/ml in LAL reagent water (LRW) (Cambrex) was added to all wells of a streptavidin Immobilizer 96-well microtiter plate (Nunc) at 100 μl per well. After incubation for 10 minutes at 20-25° C., 100 μl of Control Standard Endotoxin (CSE) solution of 10 EU/ml were added to the first well of the appropriate rows. Serial doubling dilutions were then carried out across the plate leaving the last well as a blank without endotoxin. A 0.5-ml vial of TAL reagent (Zhanjiang A&C Biologicals Ltd) was reconstituted in 0.5 ml of LRW. This was diluted 12-, 15-, 30- and 40-fold in endotoxin-free 50 mM Tris buffer (Cambrex), whereupon 100 μl of a given dilution were added to each well of the corresponding row. The microtiter plate was incubated at 37° C. for 45 minutes. The reaction was stopped by quickly emptying the wells followed by 3×2 minute washes with stop buffer (25% isopropanol v/v in 100 mM glycine-HCl, pH 2.4). The plate was then equilibrated with 2×10-30-second washes with wash buffer. HYB 100-01-POD was diluted to 0.5 μg/ml in dilution buffer and added to each well at 100 μl/well. […] The color reaction was stopped by adding 100 μl of 1 M sulfuric acid to each well and the absorbance measured at 450 nm in a microplate reader, subtracting the absorbance at 620 nm.

Biocytin-VQAITDKDEISGR [Peptide SEQ ID NO:11]
coating concentration at which the maximal (or similar) signal is reached [1]: about 0.05 μg/ml
signal [1]: much stronger signal

ITDKDEISGR [Peptide SEQ ID NO:15]
coating concentration at which the maximal (or similar) signal is reached [1]: 12.5 to 25 µg/mL

AQESGVSGR [nonapeptide]
cross-reactivity [2]: > 100%

Biocytin-VQAITDKDEISGRGF [Peptide SEQ ID NO:16]
signal [1]: slightly lower signal

DKDEISGR [Peptide SEQ ID NO:14]
signal [1]: almost totally lost

GVSGR [pentapeptide]
cross-reactivity ([2]; result in words): little or no cross-reactivity

Biotin-VQAITDKDEISGRGF [Peptide SEQ ID NO:12]
cleavage by endotoxin-activated TAL [3]: site-specific cleavage
